Test results taken from the supplement of paper PMC10920090.

What was measured:
Settings in all cases: 72 h
BT-474 [1] = assay: drug sensitivity score (DSS), cytotoxicity CellTox Green; higher = more cytotoxic; extreme values may be limits of the assay
Method: (§1)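 Targeted FIMM drug screen of 23 compounds at 5 concentrations over a 10,000-fold range in 384-well plates, 1250 cells/well, 72 h at 37 °C. Read-outs were CellTiter-Glo viability and CellTox Green cytotoxicity, normalised to DMSO and benzethonium chloride controls and summarised as drug sensitivity score (DSS). Cells stably transduced with shScramble or one of two shPPFIA1 constructs (shPPFIA1_1 TRCN0000002969, shPPFIA1_2 TRCN0000342514).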

UT-SCC-24A [2] = assay: as above
Method: as §1

MDA-MB-231 [3] = assay: as above
MDA-MB-231 [4] = assay: drug sensitivity score (DSS), cell viability CellTiter-Glo; higher = more sensitive; extreme values may be limits of the assay
BT-474 [5] = assay: as above
Method: as §1

UT-SCC-24A [6] = assay: as above
Method: as §1

Structure (SMILES)	drug sensitivity score (BT-474 [1]; shRNA: shPPFIA1_1) [DSS]	drug sensitivity score (BT-474 [1]; shRNA: shPPFIA1_2) [DSS]	drug sensitivity score (BT-474 [1]; shRNA: shScramble) [DSS]	drug sensitivity score (UT-SCC-24A [2]; shRNA: shPPFIA1_1) [DSS]	drug sensitivity score (UT-SCC-24A [2]; shRNA: shPPFIA1_2) [DSS]	drug sensitivity score (UT-SCC-24A [2]; shRNA: shScramble) [DSS]	drug sensitivity score (MDA-MB-231 [3]; shRNA: shPPFIA1_1) [DSS]	drug sensitivity score (MDA-MB-231 [3]; shRNA: shScramble) [DSS]	drug sensitivity score (MDA-MB-231 [4]; shRNA: shPPFIA1_1) [DSS]	drug sensitivity score (MDA-MB-231 [4]; shRNA: shScramble) [DSS]	drug sensitivity score (BT-474 [5]; shRNA: shPPFIA1_1) [DSS]	drug sensitivity score (BT-474 [5]; shRNA: shPPFIA1_2) [DSS]	drug sensitivity score (BT-474 [5]; shRNA: shScramble) [DSS]	drug sensitivity score (UT-SCC-24A [6]; shRNA: shPPFIA1_1) [DSS]	drug sensitivity score (UT-SCC-24A [6]; shRNA: shPPFIA1_2) [DSS]	drug sensitivity score (UT-SCC-24A [6]; shRNA: shScramble) [DSS]
CC(=O)NCC(=O)N1[C@@H]2CC[C@H]1c1ccc(Nc3ncc(C(F)(F)F)c(NC4CCC4)n3)cc12	3	3.7	3.5	4.1	3.9	4.3	2.8	0	5.5	21.7	2.7	2.8	4.5	8	8.7	8.5
CC(C)CC(=O)Nc1n[nH]c2c1CN(C(=O)C1CCN(C)CC1)C2(C)C	0.9	1.1	0.4	1.9	1.4	1.2	3.2	0	1.8	20.1	1.2	1.3	1.5	8.1	8.5	5.8
CCOc1ccn(-c2ccc(F)cc2)c(=O)c1C(=O)Nc1ccc(Oc2ccnc(N)c2Cl)c(F)c1	0	0	0	0	0	0	0	0.9	0	21	0	0	0	0	0	0
O=C(Nc1ccc2[nH]nc(-c3ccncc3)c2c1)[C@@H]1CCN(CC(=O)N2CCN(c3ccc(-c4ncccn4)cc3)CC2)C1	0	0.2	0	21.7	21.1	11.6	6	10.9	2.1	10.8	0	0	0	21.3	20.5	17.3
CN[C@@H](C)C(=O)N[C@H]1CN(C(=O)CC(C)C)CC[C@H]2CC[C@@H](C(=O)NC(c3ccccc3)c3ccccc3)N2C1=O [AT-406]	1.3	1.4	0.2	7.8	13.5	5.3	32.3	19.8	17	3.4	0	0	0	1	1.9	0
Cc1cc([C@@H](C)Nc2ccccc2C(=O)O)c2nc(N3CCOCC3)cc(=O)n2c1 [AZD-6482]	0.2	0.1	0.1	2	1	0.8	0	0.9	4.2	19.8	1.5	1.1	2.1	2.1	1.9	1.4
Cc1cc(C(=O)NOCCO)c(Nc2ccc(I)cc2F)n(C)c1=O [AZD-8330]	0	0	0	28.4	27.6	14.2	15	20.3	5.5	21.8	0	0	0	30	27.6	23.9
CN(C)C/C=C/C(=O)Nc1cc2c(Nc3ccc(F)c(Cl)c3)ncnc2cc1O[C@H]1CCOC1 [Afatinib]	7.4	8.7	7.9	20.4	19.8	12	0	0	0.2	1.4	13.2	13.3	16.2	18.5	18.1	13.4
Cn1c(=O)n(-c2ccc(C(C)(C)C#N)cc2)c2c3cc(-c4cnc5ccccc5c4)ccc3ncc21 [Dactolisib]	0	0	0	1.3	0.5	2.3	0	0	0	4.2	7.4	7.4	11	16.2	17	18
CC(=O)O[C@@]12CO[C@@H]1C[C@H](O)[C@@]1(C)C(=O)[C@H](O)C3=C(C)[C@@H](OC(=O)[C@H](O)[C@@H](NC(=O)OC(C)(C)C)c4ccccc4)C[C@@](O)([C@@H](OC(=O)c4ccccc4)[C@H]21)C3(C)C [Docetaxel]	20.1	20.5	20.9	16.2	15.2	20.1	7.3	8.7	1.3	16.8	16.1	16.8	20.6	17.3	18.8	18.7
